Reference: patent publication US8324274B2, “Drug delivery system for administration of a water soluble, cationic and amphiphilic pharmaceutically active substance” (Ardenia Invesments, Ltd., priority 2007, dated 2012)
Where a name gives a salt, the structure may show the parent alone. Read-outs that look alike come from different tables or passages of the source.

Key:
[1] = system: Human Breast Adenocarcinoma MDA-MB-231 Cell Line; test: cells
Description: (§1) For evaluation of cytotoxicity in vitro cells of different human tumour cell lines were purchased from American Type Culture Collection (Rockville, Md., USA): Human Breast Adenocarcinoma Cell Line MDA-MB-231 (ATCC-HTB-26, Lot 3576799), Human Ovary Adenocarcinoma Cell Line SKOV-3 (ATCC-HTB-77, Lot 3038337) and Human Lung Non-Small Cancer Cell Line A549 (ATCC-CCL-185, Lot 3244171). MDA-MB-231 cells were propagated in MEM culture medium with 2 mM L-glutamine, 10% fetal bovine serum (FBS) and antibiotics. SKOV-3 cells were cultured in McCoy's 5A culture medium, supplemented with 1.5 mM L-glutamine, 10% FBS and antibiotics. All media and supplements were purchased from Sigma-Aldrich Co. (St. Louis, Mi., USA). […]
(§2) The cell cultures in the cultivation plates were allowed to adhere for 24 hour of incubation. […] At the end of the incubation period adherent cells were detached by trypsinization and the number of viable cells was counted using trypan blue exclusion test and a hemocytometer. […] The results were expressed as mean cell number±SE and the differences between control and test series evaluated by means of Student's t-test. The drug cytotoxicity was evaluated based on the extent of cell growth inhibition.
(§3) IC50 were based on concentration of doxorubicin. Enhancement factors were calculated versus doxorubicin.

[2] = system: Human Ovary Adenocarcinoma SKOV-3 Cell Line; test: Cytotoxicity (cell growth inhibition, trypan blue exclusion count) in SKOV-3 cultures; details: for docetaxel-doxorubicin mixtures based on the sum of amounts of cytostatica
Description: MDA-MB-231 cells were propagated in MEM culture medium with 2 mM L-glutamine, 10% fetal bovine serum (FBS) and antibiotics. SKOV-3 cells were cultured in McCoy's 5A culture medium, supplemented with 1.5 mM L-glutamine, 10% FBS and antibiotics. […] Cell propagation of all lines was carried out in BD Falcon™ 25 or 75 cm^2 cultivation flasks (Becton Dickinson Labware). A549 cells were cultured in Ham's F-12 culture medium with 1 mM L-glutamine, 10% FBS and antibiotics. Cell propagation of all lines was carried out in BD Falcon™ 25 or 75 cm^2 cultivation flasks.
These plates were seeded by cells at 8×10^3 cells/well for MDA-MB-231, at 10×10^3 cells/well for SKOV-3 or at 6×10^3 cells/well for A549 in a volume of 200 μl/well. Both flasks and cultivation plates were incubated for cell growth at 37° C. in a humidified atmosphere of 95% air and 5% CO2.
On day 1 after cell seeding 4 μL solutions of the formulations to be tested with different concentrations in appropriate solvents were added to wells with cultures (dose—response experiments). […] The cells were incubated within 2-4 consecutive days.
EF was calculated versus ADRIAMYCIN®. IC50 for the docetaxel-doxorubicin mixtures is based on the sum of amounts of cytostatica.
as §3

[3] = system: Human Lung Non-Small Cancer Cell Line A549; test: Cytotoxicity (cell growth inhibition, trypan blue exclusion count) in A549 cultures; details: based on concentration of doxorubicin
Description: as §1, §2, §3

[4] = SK-OV-3, 72 h, SKOV-3, day 3, mean ± SE, read-out: IC50 day 3
[5] = SK-OV-3, 96 h, SKOV-3, day 4, mean ± SE, read-out: IC50 day 4

COc1cccc2c1C(=O)c1c(O)c3c(c(O)c1C2=O)C[C@@](O)(C(=O)CO)C[C@@H]3O[C@H]1C[C@H](N)[C@H](O)[C@H](C)O1 [ADRIAMYCIN ®, doxorubicin hydrochloride]
IC50 ([1]; MDA-MB-231, 72 h, read-out: IC50 day 3): 190 nM | IC50 ([1]; MDA-MB-231, 96 h, read-out: IC50 day 4): 51 nM | IC50 [2, 4]: 85 nM | IC50 [2, 5]: 48 nM | IC50 ([3]; 72 h, A549, day 3, mean ± SE, read-out: IC50 day 3): 12 nM | IC50 ([3]; 96 h, A549, day 4, mean ± SE, read-out: IC50 day 4): 27 nM

CC(=O)O[C@@]12CO[C@@H]1C[C@H](O)[C@@]1(C)C(=O)[C@H](O)C3=C(C)[C@@H](OC(=O)[C@H](O)[C@@H](NC(=O)OC(C)(C)C)c4ccccc4)C[C@@](O)([C@@H](OC(=O)c4ccccc4)[C@H]21)C3(C)C [Docetaxel, docetaxel]
IC50 [2, 4]: 90.7 nM | IC50 [2, 5]: 28.5 nM
